Columns and labels:
[1] = molecular target: T1, G protein-activated inward rectifier potassium channel 2 (Mus musculus) (UniProt P48542); assay: Stabilization of GIRK2 channel in C57BL6 mouse brain DAergic neurons assessed as recovery of D2 receptor stimulation-mediated firing inhibition in presence of 100 nM quinpirole under continuous perfusion followed by treated at 300 uM measured after 15 mins by multi-electrode array (reference value: 4.07 +-/ 3.6%); format: tissue-based; design: scale not given: the % may be the effect or the level left
T1 sequence (whole entry): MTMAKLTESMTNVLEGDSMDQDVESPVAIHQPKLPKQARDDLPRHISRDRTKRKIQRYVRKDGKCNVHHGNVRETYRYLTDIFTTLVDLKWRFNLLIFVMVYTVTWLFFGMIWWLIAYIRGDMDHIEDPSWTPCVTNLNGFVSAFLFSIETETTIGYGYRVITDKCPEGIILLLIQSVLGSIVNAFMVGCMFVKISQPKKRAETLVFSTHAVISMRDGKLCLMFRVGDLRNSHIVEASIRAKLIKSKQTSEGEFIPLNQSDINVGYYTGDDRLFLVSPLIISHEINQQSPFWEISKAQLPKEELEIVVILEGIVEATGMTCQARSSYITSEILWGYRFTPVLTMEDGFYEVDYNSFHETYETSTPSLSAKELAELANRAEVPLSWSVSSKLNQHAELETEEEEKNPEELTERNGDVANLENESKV

[2] = molecular target: T1, G protein-activated inward rectifier potassium channel 2 (Mus musculus); assay: Stabilization of GIRK2 channel in C57BL6 mouse brain DAergic neurons assessed as recovery of GABAB receptor stimulation-mediated firing inhibition treated with 100 uM dopamine and 10 uM sulpiride D2 antagonist under continuous perfusion followed by 300 nM baclofen treated at 300 uM measured after 15 mins by multi-electrode array (reference value: 24.94 +-/ 14.46%); format: tissue-based; design: scale not given: the % may be the effect or the level left

Activity [1]: 81.8% | Activity [2]: 73.6%
Structure (SMILES): N[C@@H](CC1=CC(=O)C(=O)C=C1)C(=O)O
